# “And” between values parts separate entries of the source, which are not always exact repeats. Identical values can stand only once.
# What was measured:
# [1] = test system: Peptostreptococcus intermedius; assay: MIC anaerobic bacteria, standard agar-dilution test; format: cell-based
# [2] = test system: Streptococcus pyogenes C203; assay: MIC, standard broth-dilution test; format: cell-based; details: Table XII, sodium salt
# Eubacterium aerofaciens = assay: MIC anaerobic bacteria, standard agar-dilution test; format: cell-based
# Toxicity (LD50) in mouse = format: in vivo
# [3] = test system: Streptococcus faecalis (Guze); assay: Streptococcus faecalis descending rat pyelonephritis test; format: in vivo, rat (female albino, Cox-Wistar); details: 1.0 mg/kg × 7, subcutaneous
# Experimental: In this test, the bacterial culture used was Streptococcus faecalis (Guze). The culture was grown on Trypticase soy agar (BBL), suspended in brain heart infusion broth (BBL), divided into 0.2-ml portions, and frozen in liquid nitrogen. Bacterial suspensions for rat inoculations were prepared daily by seeding a 50-ml flask of trypticase soy broth (BBL) from a frozen ampoule and growing the culture overnight at 37° C. on a shaker. The S. faecalis culture was diluted to 5×10^8 colony-forming units per ml. Test compounds were injected subcutaneously once daily for seven days. All compounds were suspended in 0.125% carboxymethylcellulose.
# The experimental rat infections were accomplished by the following procedure. Female, random-bred albino rats (Cox-Wistar) weighing 190 to 210 g were anesthetized by intraperitoneal injection of 12 mg of sodium methohexital supplemented as necessary. The experimental pyelonephritis model was based on the studies of Guze and Beeson in which the left ureter was occluded for 20 min, followed by injection of 0.5 ml of the test organism in the femoral vein. Antimicrobial therapy was commenced 4 to 5 hrs postinfection. Four hours after the last treatment the rats were sacrificed, and the left kidney was removed and homogenized in a Duall grinder containing 9 ml of physiological saline. This represented a 10^-1 dilution of the kidney tissue. Additional 10-fold dilutions in saline were based on the anticipated bacterial cells present in the tissue homogenate. Finally, duplicate agar pour plates were made from several of these dilutions, and the plates were incubated overnight at 37° C. The therapeutic results were expressed in two ways: (i) the percentage of rats with kidney counts of less than 10^2 per g of kidney tissue, referred to as "cures," and (ii) the percentage of rats with at least a 4-log10 reduction in bacterial titer compared with infected control kidneys. Control rats were treated with 0.125% carboxymethylcellulose only. Viable cell counts in kidney tissue from control rats with S. faecalis ranged from 1.2×10^8 to 4.6×10^8 per g of homogenized tissue.
# [4] = test system: Group D Streptococcus 282; assay: MIC, standard agar-dilution test; format: cell-based; details: Table XI, sodium salt
# [5] = test system: Streptococcus pneumoniae Park I; assay: MIC, standard agar-dilution test; format: cell-based; details: Table XI, sodium salt
# [6] = Electrometric titration in 66% aqueous dimethylformamide; format: physicochemical; details: 66% DMF; Na salt; factors: two determinations
# Propionibacterium acnes = assay: MIC anaerobic bacteria, standard agar-dilution test; format: cell-based
# [7] = test system: Peptostreptococcus anaerobius; assay: as above; format: cell-based
# [8] = test system: Streptococcus faecalis (Guze); assay: In vitro susceptibility (MIC) of the S. faecalis Guze strain; format: cell-based; details: Table XVI
# [9] = test system: Streptococcus pyogenes C203; assay: MIC, standard agar-dilution test; format: cell-based; details: Table XI, sodium salt
# Actinomyces isaelii = assay: MIC anaerobic bacteria, standard agar-dilution test; format: cell-based
# [10] = test system: Viridans Streptococcus 9943; assay: MIC, standard agar-dilution test; format: cell-based; details: Table XI, sodium salt
# Streptococcus pyogenes [11] = assay: MIC, agar dilution (Table XV); format: cell-based
# Clostridium perfringens = format: cell-based; details: anaerobic, agar-dilution
# Fusobacterium symbiosum = assay: MIC anaerobic bacteria, standard agar-dilution test; format: cell-based
# Staphylococcus aureus [12] = assay: MIC, agar dilution (Table XV); format: cell-based
# Excerpt: ^1 MIC = minimum inhibitory concentration (μg/ml), agar dilution
# Bacteroides fragilis = assay: MIC anaerobic bacteria, standard agar-dilution test; format: cell-based
# [13] = test system: Fusobacterium necrophorum; assay: as above; format: cell-based
# [14] = test system: Staphylococcus aureus 3055; assay: MIC, standard broth-dilution test; format: cell-based; details: Table XII, sodium salt
# Streptococcus pneumoniae [15] = assay: Experimental bacterial infection in mice, ED50; format: in vivo; details: two doses, subcutaneous administration
# Experimental: (§1) When two doses of test compound were administered to mice in illustrative infections, the activity observed was measured as an ED50 value [effective dose in mg/kg to protect fifty percent of the test animals: See Warren Wick, et al., J. Bacteriol. 81, 233-235 (1961)].
# Staphylococcus aureus [16] = assay: Experimental bacterial infection in mice, ED50; format: in vivo; details: two doses, subcutaneous administration
# Experimental: as §1
# Streptococcus pyogenes [17] = assay: Experimental bacterial infection in mice, ED50; format: in vivo; details: two doses
# Experimental: as §1
# Peptococcus prevoti = assay: MIC anaerobic bacteria, standard agar-dilution test; format: cell-based
# [18] = test system: Peptococcus asaccharolyticus; assay: as above; format: cell-based
# Toxicity (LD50) in rat = format: in vivo; details: IV
# Streptococcus pneumoniae [19] = assay: MIC, agar dilution (Table XV); format: cell-based
# [20] = test system: Neisseria gonorrhoeae 111076-4; assay: MIC, standard agar-dilution test; format: cell-based; details: Table XI, sodium salt
# [21] = test system: Viridans Streptococcus 9943; assay: MIC, standard broth-dilution test; format: cell-based; details: Table XII, sodium salt
# [22] = test system: Streptococcus pneumoniae Park I; assay: MIC, standard broth-dilution test; format: cell-based; details: Table XII, sodium salt
# [23] = test system: Group D Streptococcus 282; assay: MIC, standard broth-dilution test; format: cell-based; details: Table XII, sodium salt
# [24] = test system: pathogenic organisms, particularly gram-positive bacteria; assay: Inhibition of growth of pathogenic organisms; format: cell-based
# [25] = test system: Staphylococcus aureus 3055; assay: MIC, standard agar-dilution test; format: cell-based; details: Table XI, sodium salt
# Clostridium septicum = assay: MIC anaerobic bacteria, standard agar-dilution test; format: cell-based
# Micrococcus luteus = assay: Bioassay, paper-disc agar-diffusion; details: Na salts; Table VIII
Compound,MIC [1],MIC [2],MIC (Eubacterium aerofaciens),LD50 (Toxicity (LD50) in mouse; IV),LD50 (Toxicity (LD50) in mouse; SC),Percent of Rats Cured [3],Percent of Rats with a 4-Log Titer Decrease [3],MIC [4],MIC [5],pKa (first group) [6],MIC (Propionibacterium acnes),MIC [7],MIC [8],MIC [9],MIC (Actinomyces isaelii),MIC [10],MIC (Streptococcus pyogenes [11]),MIC (Clostridium perfringens),MIC (Fusobacterium symbiosum),MIC (Staphylococcus aureus [12]),other results
CC(C)CCCCCCCCC(=O)N[C@@H](Cc1c[nH]c2ccccc12)C(=O)N[C@@H](CC(N)=O)C(=O)N[C@@H](CC(=O)O)C(=O)N[C@@H]1C(=O)NCC(=O)N[C@@H](CCCN)C(=O)N[C@@H](CC(=O)O)C(=O)N[C@H](C)C(=O)N[C@@H](CC(=O)O)C(=O)NCC(=O)N[C@H](CO)C(=O)N[C@@H]([C@H](C)CC(=O)O)C(=O)N[C@@H](CC(=O)c2ccccc2N)C(=O)O[C@@H]1C [Factor C2],1.0 µg/mL,0.25 µg/mL,8 µg/mL,150 to 250 mg/kg,175 mg/kg,89%,100%,0.25 µg/mL,0.25 µg/mL,5.8 and 5.93,2 µg/mL,1.0 µg/mL,0.25 µg/mL,0.13 µg/mL,1.0 µg/mL,1.0 µg/mL,0.13 µg/mL,8 µg/mL,> 128 µg/mL,0.13 µg/mL,"pKa (second group) [6]: 7.6 and 7.63; MIC (Bacteroides fragilis): > 128 µg/mL; MIC [13]: 64 µg/mL; MIC [14]: 0.5 µg/mL; ED50 (Streptococcus pneumoniae [15]): 0.14 mg/kg; ED50 (Staphylococcus aureus [16]): 0.16 mg/kg; ED50 (Streptococcus pyogenes [17]): 0.032 mg/kg; ED50 (Streptococcus pyogenes [17]; oral administration): 59 mg/kg; MIC (Peptococcus prevoti): 1.0 µg/mL; MIC [18]: 2 µg/mL; LD50 (Toxicity (LD50) in rat): 204 ± 17 mg/kg; MIC (Streptococcus pneumoniae [19]): 0.13 µg/mL; MIC [20]: 4.0 µg/mL; MIC [21]: 16.0 µg/mL; MIC [22]: 1.0 µg/mL; MIC [23]: 1.0 µg/mL; growth inhibition [24]: inhibit the growth of certain pathogenic organisms, particularly gram-positive bacteria; MIC [25]: 0.13 µg/mL; MIC (Clostridium septicum): 1.0 µg/mL; Bioassay (Micrococcus luteus) (Micrococcus luteus): 1390 units/mg"
CCC(C)CCCCCCC(=O)N[C@@H](Cc1c[nH]c2ccccc12)C(=O)NC(CC(N)=O)C(=O)N[C@@H](CC(=O)O)C(=O)N[C@@H]1C(=O)NCC(=O)N[C@@H](CCCN)C(=O)N[C@@H](CC(=O)O)C(=O)N[C@H](C)C(=O)N[C@@H](CC(=O)O)C(=O)NCC(=O)N[C@H](CO)C(=O)N[C@@H]([C@H](C)CC(=O)O)C(=O)N[C@@H](CC(=O)c2ccccc2N)C(=O)O[C@@H]1C (stereo in doubt) [Factor C1],4 µg/mL,0.5 µg/mL,16 µg/mL,> 250 mg/kg,> 365 mg/kg,50%,50%,1.0 µg/mL,0.13 µg/mL,5.7 and 5.9,8 µg/mL,2 µg/mL,1.0 µg/mL,0.13 µg/mL,4 µg/mL,0.5 µg/mL,0.13 µg/mL,16 µg/mL,> 128 µg/mL,0.5 µg/mL,"MIC (Bacteroides fragilis): > 128 µg/mL; MIC [13]: 64 µg/mL; MIC [14]: 1.0 µg/mL; ED50 (Streptococcus pneumoniae [15]): 0.3 mg/kg; ED50 (Staphylococcus aureus [16]): 0.22 mg/kg; ED50 (Streptococcus pyogenes [17]): 0.064 mg/kg; ED50 (Streptococcus pyogenes [17]; oral administration): 93 mg/kg; MIC (Peptococcus prevoti): 2 µg/mL; MIC [18]: 4 µg/mL; LD50 (Toxicity (LD50) in rat): 479 ± 32 mg/kg; MIC (Streptococcus pneumoniae [19]): 0.13 µg/mL; MIC [20]: 16.0 µg/mL; MIC [21]: 32.0 µg/mL; MIC [22]: 2.0 µg/mL; MIC [23]: 2.0 µg/mL; growth inhibition [24]: inhibit the growth of certain pathogenic organisms, particularly gram-positive bacteria; MIC [25]: 0.5 µg/mL; MIC (Clostridium septicum): 4 µg/mL; Bioassay (Micrococcus luteus) (Micrococcus luteus): 1663 units/mg"
